Calls of active or inactive are those of the source. The rule behind the calls is not given here.
Columns and labels:
[1] = target: Cyclin-dependent kinase 9 (Homo sapiens) (UniProt P50750); experiment: (§1) Inhibition of GST-fused human full-length CDK9 (1 to 372(end) residues)/N-terminal GST-fused His-tagged human full-length CyclinT1 (1 to 726(end) residues) expressed in baculovirus expression system at 10 nM using CDK7/9 tide as substrate incubated for 120 mins in presence of ATP by ADP-Glo Kinase assay relative to control
Chain of Cyclin-dependent kinase 9 (Homo sapiens) (P50750 whole entry, the tested form may be a part): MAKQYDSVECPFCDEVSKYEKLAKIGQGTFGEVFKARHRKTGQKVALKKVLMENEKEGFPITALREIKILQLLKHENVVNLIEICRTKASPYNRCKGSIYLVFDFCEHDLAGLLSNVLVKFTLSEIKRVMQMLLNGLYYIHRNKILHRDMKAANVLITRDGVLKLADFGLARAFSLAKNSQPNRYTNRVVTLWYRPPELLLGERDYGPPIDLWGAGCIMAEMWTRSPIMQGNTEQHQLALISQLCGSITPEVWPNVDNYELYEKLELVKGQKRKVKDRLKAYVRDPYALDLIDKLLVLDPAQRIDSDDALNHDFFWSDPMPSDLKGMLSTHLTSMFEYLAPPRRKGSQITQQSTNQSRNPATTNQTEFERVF

[2] = target: Cyclin-dependent kinase 9 (Homo sapiens) (UniProt P50750); experiment: as §1, with “100” for “10”
U2932 [3] = experiment: Cytotoxicity against human U2932 cells assessed as inhibition of cell growth measured after 72 hrs by CCK-8 assay; format: functional, cell-based; settings: U2932, 72 h
[4] = target: Cyclin-dependent kinase 9 (Homo sapiens) (UniProt P50750); experiment: Induction of CDK9 42 kDa degradation in human U2932 cells assessed as maximal efficacy at 1 to 1000 nM by immunoblotting analysis relative to control; format: cell-based; settings: dose 1-1000 nM
[5] = target: Cyclin-dependent kinase 9 (Homo sapiens) (UniProt P50750); experiment: Induction of CDK9 42 kDa degradation in human U2932 cells by immunoblotting analysis; format: cell-based; settings: dose 1-1000 nM
[6] = target: Cyclin-dependent kinase 9 (Homo sapiens) (UniProt P50750); experiment: Induction of CDK9 55 kDa degradation in human U2932 cells by immunoblotting analysis; format: cell-based; settings: dose 1-1000 nM
[7] = target: Cyclin-dependent kinase 9 (Homo sapiens) (UniProt P50750); experiment: Induction of CDK9 42 kDa degradation in human U2932 cells at 100 nM by immunoblotting analysis; format: cell-based; settings: time 1-24 hrs, TDE = time-dependent effect
[8] = target: Cyclin-dependent kinase 9 (Homo sapiens) (UniProt P50750); experiment: Induction of CDK9 55 kDa degradation in human U2932 cells at 100 nM by immunoblotting analysis; format: cell-based; settings: time 1-24 hrs, TDE = time-dependent effect
HCT-116 = experiment: Cytotoxicity against human HCT-116 cells assessed as inhibition of cell growth measured after 72 hrs by CCK-8 assay; format: functional, cell-based
HCT-8 = experiment: Cytotoxicity against human HCT-8 cells assessed as inhibition of cell growth measured after 72 hrs by CCK-8 assay; format: functional, cell-based
A2780 = experiment: Cytotoxicity against human A2780 cells assessed as inhibition of cell growth measured after 72 hrs by CCK-8 assay; format: functional, cell-based
KP-4 = experiment: Cytotoxicity against human KP-4 cells assessed as inhibition of cell growth measured after 72 hrs by CCK-8 assay; format: functional, cell-based
U2932 [9] = experiment: Downregulation of RNAP2 phosphorylation at serine 2 residue in human U2932 cells at 10 to 1000 nM incubated for 6 hrs by immunoblotting analysis; format: functional, cell-based; settings: dose 10-1000 nM
U2932 [10] = experiment: Downregulation of Mcl-1 protein level in human U2932 cells incubated for 6 hrs by RT-qPCR analysis; format: functional, cell-based; settings: dose 10-1000 nM
U2932 [11] = experiment: Downregulation of c-Myc protein level in human U2932 cells incubated for 6 hrs by RT-qPCR analysis; format: functional, cell-based; settings: dose 10-1000 nM
MV4-11 [12] = experiment: Downregulation of c-Myc protein level in human MV4-11 cells incubated for 6 hrs by RT-qPCR analysis; format: functional, cell-based; settings: dose 10-1000 nM
U2932 [13] = experiment: Induction of apoptosis in human U2932 cells assessed as viable cells at 1000 nM incubated for 24 hrs by AnnexinV-FITC/PI staining based flow cytometry analysis (reference value: 86.9%); format: functional; settings: read-out: Activity
U2932 [14] = experiment: Induction of apoptosis in human U2932 cells assessed as early apoptotic cells at 1000 nM incubated for 24 hrs by AnnexinV-FITC/PI staining based flow cytometry analysis (reference value: 6.20%); format: functional
U2932 [15] = experiment: Induction of apoptosis in human U2932 cells assessed as necrotic cells at 1000 nM incubated for 24 hrs by AnnexinV-FITC/PI staining based flow cytometry analysis (reference value: 0.92%); format: functional
MV4-11 [16] = experiment: Induction of apoptosis in human MV4-11 cells at 1000 nM incubated for 24 hrs by AnnexinV-FITC/PI staining based flow cytometry analysis; format: functional, cell-based
[17] = target: Cyclin-dependent kinase 9 (Homo sapiens) (UniProt P50750); experiment: Induction of CDK9 42 kDa degradation in human U2932 cells at 500 nM incubated for 12 hrs in presence of SNS-032 by immunoblotting analysis; format: cell-based
[18] = target: Cyclin-dependent kinase 9 (Homo sapiens) (UniProt P50750); experiment: Induction of CDK9 55 kDa degradation in human U2932 cells at 500 nM incubated for 12 hrs in presence of SNS-032 by immunoblotting analysis; format: cell-based
[19] = target: Cyclin-dependent kinase 9 (Homo sapiens) (UniProt P50750); experiment: Induction of CDK9 42 kDa degradation in human U2932 cells at 500 nM incubated for 12 hrs in presence of 5,7-Dihydroxy-4-methylcoumarin by immunoblotting analysis; format: cell-based
[20] = target: Cyclin-dependent kinase 9 (Homo sapiens) (UniProt P50750); experiment: Induction of CDK9 55 kDa degradation in human U2932 cells at 500 nM incubated for 12 hrs in presence of 5,7-Dihydroxy-4-methylcoumarin by immunoblotting analysis; format: cell-based
[21] = target: Cyclin-dependent kinase 9 (Homo sapiens) (UniProt P50750); experiment: Induction of CDK9 42 kDa degradation in human U2932 cells at 500 nM incubated for 12 hrs in presence of BafA1 by immunoblotting analysis; format: cell-based
[22] = target: Cyclin-dependent kinase 9 (Homo sapiens) (UniProt P50750); experiment: Induction of CDK9 55 kDa degradation in human U2932 cells at 500 nM incubated for 12 hrs in presence of BafA1 by immunoblotting analysis; format: cell-based
[23] = target: Cyclin-dependent kinase 9 (Homo sapiens) (UniProt P50750); experiment: Induction of CDK9 42 kDa degradation in human U2932 cells at 500 nM incubated for 12 hrs in presence of HCQ by immunoblotting analysis; format: cell-based
[24] = target: Cyclin-dependent kinase 9 (Homo sapiens) (UniProt P50750); experiment: Induction of CDK9 55 kDa degradation in human U2932 cells at 500 nM incubated for 12 hrs in presence of HCQ by immunoblotting analysis; format: cell-based
[25] = target: Cyclin-dependent kinase 9 (Homo sapiens) (UniProt P50750); experiment: Induction of CDK9 42 kDa degradation in human U2932 cells at 500 nM incubated for 12 hrs in presence of MLN4924 by immunoblotting analysis; format: cell-based
[26] = target: Cyclin-dependent kinase 9 (Homo sapiens) (UniProt P50750); experiment: Induction of CDK9 55 kDa degradation in human U2932 cells at 500 nM incubated for 12 hrs in presence of MLN4924 by immunoblotting analysis; format: cell-based
[27] = Half life in CD-1 mouse at 5 mg/kg, ip measured after 24 hrs by LC-MS/MS analysis; format: ADME, organism-based; settings: in vivo
[28] = Half life in CD-1 mouse at 1 mg/kg, iv measured after 24 hrs by LC-MS/MS analysis; format: ADME, organism-based; settings: in vivo
[29] = Tmax in CD-1 mouse at 5 mg/kg, ip measured after 24 hrs by LC-MS/MS analysis; format: ADME, organism-based; settings: in vivo
[30] = AUC(0 to t) in CD-1 mouse at 5 mg/kg, ip measured after 24 hrs by LC-MS/MS analysis; format: ADME, organism-based; design: dose 5 mg/kg, time 24 hrs, route ip; settings: in vivo
[31] = AUC(0 to t) in CD-1 mouse at 1 mg/kg, iv measured after 24 hrs by LC-MS/MS analysis; format: ADME, organism-based; design: time 24 hrs, dose 1 mg/kg, route iv; settings: in vivo
[32] = Observed clearance in CD-1 mouse at 1 mg/kg, iv measured after 24 hrs by LC-MS/MS analysis; format: ADME, organism-based; settings: in vivo
[33] = Observed MRTinfinity in CD-1 mouse at 5 mg/kg, ip measured after 24 hrs by LC-MS/MS analysis; format: ADME, organism-based; settings: in vivo
[34] = Observed MRTinfinity in CD-1 mouse at 1 mg/kg, iv measured after 24 hrs by LC-MS/MS analysis; format: ADME, organism-based; settings: in vivo
[35] = Volume of distribution at steady state in CD-1 mouse at 1 mg/kg, iv measured after 24 hrs by LC-MS/MS analysis; format: ADME, organism-based; settings: in vivo, read-out: Vdss
[36] = Oral bioavailability in CD-1 mouse at 5 mg/kg measured after 24 hrs by LC-MS/MS analysis; format: ADME, organism-based; settings: in vivo

Row | inhibition [1] [%] | inhibition [2] [%] | Emax [4] [%] | Activity [5] | Activity [6] | Activity [7] | Activity [8] | Compound | IC50 (U2932 [3]) [nM] | Activity (HCT-116) | Activity (HCT-8) | Activity (A2780) | Activity (KP-4) | Activity (U2932 [9]) | Activity (U2932 [10]) | Activity (U2932 [11]) | Activity (MV4-11 [12]) | viability at 1 µM (U2932 [13]) [%] | Activity (U2932 [14]) [%] | Activity (U2932 [15]) [%] | Activity (MV4-11 [16]) | other results
1 | 1 | 54 | 59 | Dose-Dependent Effect | Dose-Dependent Effect | Tde | Tde | Cc1cc(=O)oc2cc(O)cc(OCCCCCN3CCC(C(=O)Nc4ncc(SCc5ncc(C(C)(C)C)o5)s4)CC3)c12 | 45 | Active | Active | Active | Active | Active | Active | Active | Dose-Dependent Effect | 41.8 | 15.2 | 2.12 | Active | Activity [17]: inactive; Activity [18]: inactive; Activity [19]: inactive; Activity [20]: inactive; Activity [21]: inactive; Activity [22]: inactive; Activity [23]: inactive; Activity [24]: inactive; Activity [25]: Active; Activity [26]: Active; half-life [27]: 4.66 h; half-life [28]: 1.97 h; Tmax [29]: 0.25 h; AUC(0-t) at 24 h [30]: 156 ng·h/mL; AUC(0-t) at 24 h [31]: 72.3 ng·h/mL; clearance [32]: 229 mL/min/kg; MRT inf [33]: 4.17 h; MRT inf [34]: 0.79 h; Vd [35]: 10.5 L/kg; bioavailability [36]: 43.1%
2 | 1 | 65 | 49.9 | Dose-Dependent Effect | Dose-Dependent Effect | Tde | Tde | Cc1cc(=O)oc2cc(OCCCN3CCC(C(=O)Nc4ncc(SCc5ncc(C(C)(C)C)o5)s4)CC3)cc(O)c12 | 45 | Active | Active | Active | Active | Active | Active | Active | Dose-Dependent Effect | 47.4 | 11.8 | 2.08 | Active | Activity [17]: inactive; Activity [18]: inactive; Activity [19]: inactive; Activity [20]: inactive; Activity [21]: inactive; Activity [22]: inactive; Activity [23]: inactive; Activity [24]: inactive; Activity [25]: Active; Activity [26]: Active; half-life [27]: 3.61 h; half-life [28]: 1.03 h; Tmax [29]: 0.25 h; AUC(0-t) at 24 h [30]: 143 ng·h/mL; AUC(0-t) at 24 h [31]: 116 ng·h/mL; clearance [32]: 140 mL/min/kg; MRT inf [33]: 3.84 h; MRT inf [34]: 0.674 h; Vd [35]: 5.7 L/kg; bioavailability [36]: 24.6%
